# Results published in paper PMC1968811, “Pharmacokinetics in melanoma-bearing mice of 5-dihydroxyboryl-6-propyl-2-thiouracil (BPTU), a candidate compound for boron neutron capture therapy” (British Journal of Cancer, 1994).
# Tests used:
# melanotic B16 cells = conditions: cited from earlier work; for Retention in cells in vitro: after washing, ref R. Verrijk et al., 1991, unpublished data
# [1] = tested on: non-pigmented B16.013 subclone; design: method as in R. Verrijk et al., 1991, unpublished data; conditions: non-pigmented B16.013 cells; ref R. Verrijk et al., 1991, unpublished data; cited from earlier work
# [2] = tested on: pigmented B16 melanoma (B16wt); assay: Tumour boron uptake and retention in subcutaneous pigmented B16 tumours; type: in vivo, C57/BL mice; conditions: for Tumour boron conc. / Tumour-to-blood ratio (boron): BSH 50 mg kg-1 boron single dose, B16.wt
# Text: (§1) Br. J. Cancer (1994), 69, 641 647 ? Macmillan Press Ltd., 1994~~~~~~~~~~~~~~~~~~~~~~~~~~~~~~~~~~~~~~~~~~~~~~~~~~~~~~~~~~~~~~~~~~~~~~~~~~~~~~~~~~~~~ Pharmacokinetics in melanoma-bearing- mice of 5-dihydroxyboryl- 6-propyl-2-thiouracil (BPTU), a candidate compound for boron neutron capture therapy R. Verrijkl, I.J.H. Smolders', R. Huiskamp2, P.R. Gavin3,. K.H.I. Philipp2 & A.C. Begg' 'The Netherlands Cancer Institute, Division of Experimental Therapy, Plesmanlaan 121, 1066 CX, Amsterdam, The Netherlands; 2The Netherlands Energy Research Foundation, Division of Radiobiology and Radioecology, PO Box 1, 1755 SG, Petten, The Netherlands; 3Department of Veterinary Clinical Medicine and Surgery and Washington Animal Disease and Diagnostic Laboratory, Washington State University, Pullman, Washington 99164-6610, USA. Summary Blood pharmacokinetics and tissue distribution of 5-dihydroxyboryl-6-propyl-2-thiouracil (BPTU), a boron carrier with postulated melanin-seeking properties for boron neutron capture therapy, were deter- mined in C57/BL mice with subcutaneous pigmented or non-pigmented B16 melanomas. Borocaptate sodium (BSH) was used as a boron compound without melanin-seeking properties in a comparative biodistribution study in the same animal tumour models. […] BPTU was found in large concentra- tions in kidney and liver. Brain boron was approximately 10-fold lower than tumour boron. […] Owing to solubility limits, tumour boron concentrations in this mouse study were too low for effective application of BNCT. However, the high tumour-to-blood and tumour-to-normal tissues ratios indicate that, with appropriate formulation, BPTU could be a promising candidate for clinical BNCT. […] The selective accumulation of "'B-containing compounds in tumours and subsequent irradiation with low-energy (thermal) neutrons form the basis of BNCT. The short track lengths of `'B(n,a)7Li fission pro- ducts (9 and 5 iLm for a and 7Li respectively) offer partial restriction of the radiation dose to the "'B-containing cells. Additional advantages owing to the high-LET (linear energy transfer) character of the emitted radiation are higher biological efficacies compared with photons or X-rays and less effect of hypoxia or cell cycle distribution on the therapeutic effect. The relatively high resistance of melanomas for photon therapy and the presence of a bio- chemical rationale for boron targeting explain the efforts made in this area (Mishima et al., 1989; Madoc Jones et al., 1990). The often high rate of melanogenesis in melanoma cells has led to the development of several boron drugs with melanoma-seeking capacity. The L-isomer of boronphenylalanine (BPA) is taken up by melanoma cells both in vitro and in vivo (Ichihashi et al., 1982; 1989; Coderre et al., 1987; 1990; Allen et al., 1992; Packer et al., 1992). Animal studies on BNCT efficacy and normal tissue tolerance with BPA have also been performed (Coderre et al., 1991; 1992; Hiratsuka et al., 1991). Although the uptake of BPA in melanoma cells is well accepted, incor- poration of boron into melanin might not occur, resulting in poor retention. Boronated thiouracils that enter the melanogenesis pathway at a different point from BPA have been recently synthesised, aiming at boron incorporation into the melanin for better retention (Tjarks & Gabel, 1991). […] Since the radiation dose in BNCT is mainly dependent on cellular boron levels, amelanotic tumour cell subpopulations may limit the efficacy of boron compounds that target the pigmented tumour cell fraction only. […] Begg. Received 1 September 1993; and in revised form 15 November 1993. into cell populations with different pigmentation levels in experimental tumour models, melanomas often increase in the amelanotic fraction with tumour progression and metas- tasis development in humans (Guiliano et al., 1982; Elder, 1987). It is therefore important to establish the capacity of melanoma-seeking boron drugs to target the amelanotic cells in a tumour. […]
# [3] = tested on: non-pigmented B16.013 melanoma; assay: Tumour boron uptake and retention in subcutaneous non-pigmented B16.013 tumours; type: in vivo, C57/BL mice; conditions: for Tumour boron conc. / Tumour-to-blood ratio (boron): BSH 50 mg kg-1 boron single dose, B16.013
# Text: as §1
# [4] = Boron distribution in blood and normal tissues (skin, muscle, brain, kidneys, liver) of tumour-bearing mice; type: in vivo, C57/BL mice
# Text: (§2) Br. J. Cancer (1994), 69, 641 647 ? Macmillan Press Ltd., 1994~~~~~~~~~~~~~~~~~~~~~~~~~~~~~~~~~~~~~~~~~~~~~~~~~~~~~~~~~~~~~~~~~~~~~~~~~~~~~~~~~~~~~ Pharmacokinetics in melanoma-bearing- mice of 5-dihydroxyboryl- 6-propyl-2-thiouracil (BPTU), a candidate compound for boron neutron capture therapy R. Verrijkl, I.J.H. Smolders', R. Huiskamp2, P.R. Gavin3,. K.H.I. Philipp2 & A.C. Begg' 'The Netherlands Cancer Institute, Division of Experimental Therapy, Plesmanlaan 121, 1066 CX, Amsterdam, The Netherlands; 2The Netherlands Energy Research Foundation, Division of Radiobiology and Radioecology, PO Box 1, 1755 SG, Petten, The Netherlands; 3Department of Veterinary Clinical Medicine and Surgery and Washington Animal Disease and Diagnostic Laboratory, Washington State University, Pullman, Washington 99164-6610, USA. Summary Blood pharmacokinetics and tissue distribution of 5-dihydroxyboryl-6-propyl-2-thiouracil (BPTU), a boron carrier with postulated melanin-seeking properties for boron neutron capture therapy, were deter- mined in C57/BL mice with subcutaneous pigmented or non-pigmented B16 melanomas. Borocaptate sodium (BSH) was used as a boron compound without melanin-seeking properties in a comparative biodistribution study in the same animal tumour models. […] BPTU was found in large concentra- tions in kidney and liver. Brain boron was approximately 10-fold lower than tumour boron. […] Owing to solubility limits, tumour boron concentrations in this mouse study were too low for effective application of BNCT. However, the high tumour-to-blood and tumour-to-normal tissues ratios indicate that, with appropriate formulation, BPTU could be a promising candidate for clinical BNCT. […] The selective accumulation of "'B-containing compounds in tumours and subsequent irradiation with low-energy (thermal) neutrons form the basis of BNCT. The short track lengths of `'B(n,a)7Li fission pro- ducts (9 and 5 iLm for a and 7Li respectively) offer partial restriction of the radiation dose to the "'B-containing cells. Additional advantages owing to the high-LET (linear energy transfer) character of the emitted radiation are higher biological efficacies compared with photons or X-rays and less effect of hypoxia or cell cycle distribution on the therapeutic effect. The relatively high resistance of melanomas for photon therapy and the presence of a bio- chemical rationale for boron targeting explain the efforts made in this area (Mishima et al., 1989; Madoc Jones et al., 1990). The often high rate of melanogenesis in melanoma cells has led to the development of several boron drugs with melanoma-seeking capacity. […]
# [5] = Solubility limit in formulation for injection; type: physicochemical; conditions: limited the dose administered to mice
# Text: Br. J. Cancer (1994), 69, 641 647 ? Macmillan Press Ltd., 1994~~~~~~~~~~~~~~~~~~~~~~~~~~~~~~~~~~~~~~~~~~~~~~~~~~~~~~~~~~~~~~~~~~~~~~~~~~~~~~~~~~~~~ Pharmacokinetics in melanoma-bearing- mice of 5-dihydroxyboryl- 6-propyl-2-thiouracil (BPTU), a candidate compound for boron neutron capture therapy R. Verrijkl, I.J.H. Smolders', R. Huiskamp2, P.R. Gavin3,. K.H.I. Philipp2 & A.C. Begg' 'The Netherlands Cancer Institute, Division of Experimental Therapy, Plesmanlaan 121, 1066 CX, Amsterdam, The Netherlands; 2The Netherlands Energy Research Foundation, Division of Radiobiology and Radioecology, PO Box 1, 1755 SG, Petten, The Netherlands; 3Department of Veterinary Clinical Medicine and Surgery and Washington Animal Disease and Diagnostic Laboratory, Washington State University, Pullman, Washington 99164-6610, USA. Summary Blood pharmacokinetics and tissue distribution of 5-dihydroxyboryl-6-propyl-2-thiouracil (BPTU), a boron carrier with postulated melanin-seeking properties for boron neutron capture therapy, were deter- mined in C57/BL mice with subcutaneous pigmented or non-pigmented B16 melanomas. Borocaptate sodium (BSH) was used as a boron compound without melanin-seeking properties in a comparative biodistribution study in the same animal tumour models. […] BPTU was found in large concentra- tions in kidney and liver. Brain boron was approximately 10-fold lower than tumour boron. […]
# [6] = Blood boron pharmacokinetics in B16 melanoma-bearing mice (ICP-AES, two-compartment fit); type: in vivo, C57/BL mice; conditions: for Cmax blood, maximum boron concentration in blood: calculated values, BSH 50 mg kg-1 boron i.v.
# Text: as §2, with “cells.” for “cells. Additional advantages owing to the high-LET (linear energy transfer) character of the emitted radiation are higher biological efficacies compared with photons or X-rays and less effect of hypoxia or cell cycle distribution on the therapeutic effect. The relatively high resistance of melanomas for photon therapy and the presence of a bio- chemical rationale for boron targeting explain the efforts made in this area (Mishima et al., 1989; Madoc Jones et al., 1990). The often high rate of melanogenesis in melanoma cells has led to the development of several boron drugs with melanoma-seeking capacity.”
# [7] = tested on: subcutaneous fibrosarcoma RIF-1; assay: BSH boron pharmacokinetics in blood and RIF-1 tumour tissue; type: in vivo, C3H/Km mice
# [8] = BSH 50 mg kg-1 boron i.v., 12 min after administration
compound,measurement,setting,value
"O=c1[nH]c(=S)[nH]cc1B(O)O [BTU, boronthiouracil]",Retention in cells in vitro,melanotic B16 cells; melanotic B16 cells,showed no retention at all in either cell line
same,Retention in cells in vitro,[1],showed no retention at all in either cell line
"CCCc1[nH]c(=S)[nH]c(=O)c1B(O)O [BPTU, 5-dihydroxyboryl-6-propyl-2-thiouracil]","Change of mean tumour boron concentration, multiple vs single BPTU administration","[2]; 4 x 3.15 vs 3.15 mg kg-1 boron, 24 h, pigmented B16",increased more than three times
same,Tumour boron vs blood boron profile,"[3]; BPTU single dose, non-pigmented tumour variant",tumour boron levels closely followed blood levels
same,Boron in kidney and liver,[4]; BPTU single doses,found in large concentrations in kidney and liver
same,Solubility,[5],insufficient solubility
same,Retention in cells in vitro,melanotic B16 cells; melanotic B16 cells,better retained in the cells than BPA or BSH
same,Retention in cells in vitro,[1],failed to be retained
Borocaptate sodium [BSH],Cmax values relative to BPTU,[6]; BSH 50 vs BPTU 3.15 mg kg-1 boron,approximately 10 fold
same,"Cmax blood, maximum boron concentration in blood",[6]; B16wt-bearing mice,59.4 ± 10.6 g mli
same,"Cmax blood, maximum boron concentration in blood",[6]; B16.013-bearing mice,54.1 ± 14.6 g mli
same,Mean ratio Cmax tumour/injected dose,"[2]; BSH 50 mg kg-1 boron i.v., B16wt tumour",0.7
same,Tumour boron conc.,[2]; 4 h,7.6 g g-g'
same,Tumour-to-blood ratio (boron),[2]; 4 h,1.1
same,Tumour boron conc.,[2]; 24 h,2.3 g g-g'
same,Tumour-to-blood ratio (boron),[2]; 24 h,3.4
same,Retention of boron in tumour,"[2]; BSH 50 mg kg-1 boron, 24 and 48 h, pigmented B16","retained in B16 tumours at 24 and 48 h, irrespective of pigmentation degree"
same,"Cmax tumour, maximum boron concentration in tumour","[2]; highest measured values, BSH 50 mg kg-1 boron i.v., B16wt tumour",32.8 3.52 g mg-
same,Mean ratio Cmax tumour/injected dose,"[3]; BSH 50 mg kg-1 boron i.v., B16.013 tumour",1.0
same,Tumour boron conc.,[3]; 4 h,10.5 g g-g'
same,Tumour-to-blood ratio (boron),[3]; 4 h,1.5
same,Tumour boron conc.,[3]; 24 h,2.2 g g-g'
same,Tumour-to-blood ratio (boron),[3]; 24 h,4.0
same,Retention of boron in tumour,"[3]; BSH 50 mg kg-1 boron, 24 and 48 h, non-pigmented B16","retained in B16 tumours at 24 and 48 h, irrespective of pigmentation degree"
same,"Cmax tumour, maximum boron concentration in tumour","[3]; highest measured values, BSH 50 mg kg-1 boron i.v., B16.013 tumour",49.8 11.0 g mg-
same,Liver boron level,[4]; [8],up to 230 Agg- g
same,Liver boron relative to blood boron,[4]; [8],8 fold
same,Liver-to-kidney boron concentration ratio,"[4]; BSH, during the tissue distribution phase",2-4
same,Tumour-to-blood ratios of boron,"[7]; BSH 50 mg kg-1 boron, RIF-1 fibrosarcoma, 24 or 48 h",not significantly above unity
same,Boron tumour-to-blood ratios,"[7]; BSH, at times before 24 h, tumour model not named at the place",below 1
same,Levels of boron in cells vs culture medium,"melanotic B16 cells; melanotic B16 cells incubated with BSH, ref Verrijk et al., 1992",higher than in the culture medium only after 16 h incubation
same,Cellular boron retention after washing,"melanotic B16 cells; melanotic B16 cells, washing with boron-free culture medium for 4 h, ref Verrijk et al., 1992",Partial cel- lular boron retention
